Source: US4657913A, “Trifluoro- quinoline -3-carboxylic acids and their use as anti-bacterial agents” (Warner-Lambert Company, priority 1985, dated 1987)
In brackets after ≈: the same amount, converted by molar mass.

Key:
Experiment in all cases: microtitration dilution method, in vitro antibacterial activity (MIC)
Type in all cases: cell-based
[1] = test system: Staphylococcus aureus UC-76; conditions: UC76, read-out: Minimal Inhibitory Concentration MIC
Excerpt: (§1) The compounds of the invention display antibacterial activity when tested by the microtitration dilution method as described in Heifetz, et al, Antimicr. Agents & Chemoth., 6, 124 (1974), which is incorporated herein by reference.
(§2) By use of the above referenced method, the following minimum inhibitory concentration values (MICs in μg/ml) were obtained for representative compounds of the invention.

Proteus rettgeri M 1771 = conditions: Providencia rettgeri, M1771, read-out: Minimal Inhibitory Concentration MIC
Excerpt: as §1, §2

Escherichia coli Vogel = conditions: read-out: Minimal Inhibitory Concentration MIC
Excerpt: as §1, §2

[2] = test system: Klebsiella pneumoniae MGH-2; conditions: MGH2, read-out: Minimal Inhibitory Concentration MIC
Excerpt: as §1, §2

[3] = test system: Enterobacter cloacae MA 2646; conditions: MA2646, read-out: Minimal Inhibitory Concentration MIC
Excerpt: as §1, §2

[4] = test system: Streptococcus pneumoniae SV-1; conditions: SV1, read-out: Minimal Inhibitory Concentration MIC
Excerpt: as §1, §2

[5] = test system: Streptococcus pyogenes C-203; conditions: C203, read-out: Minimal Inhibitory Concentration MIC
Excerpt: as §1, §2

[6] = test system: Streptococcus faecalis MGH-2; conditions: Enterococcus faecalis, MGH2, read-out: Minimal Inhibitory Concentration MIC
Excerpt: as §1, §2

[7] = test system: Pseudomonas aeruginosa UI-18; conditions: UI18, read-out: Minimal Inhibitory Concentration MIC
Excerpt: as §1, §2

[8] = test system: Staphlococcus aureus H 228; conditions: read-out: Minimal Inhibitory Concentration MIC
Excerpt: as §1, §2

Row | MIC [1] [µg/mL] | MIC (Proteus rettgeri M 1771) [µg/mL] | MIC (Escherichia coli Vogel) [µg/mL] | MIC [2] [µg/mL] | MIC [3] [µg/mL] | MIC [4] [µg/mL] | MIC [5] [µg/mL] | MIC [6] [µg/mL] | MIC [7] [µg/mL] | MIC [8] [µg/mL] | SMILES
1 | 0.2 (≈ 0.489 µM) | 6.3 (≈ 15.4 µM) | 0.8 (≈ 1.95 µM) | 1.6 (≈ 3.91 µM) | 0.8 (≈ 1.95 µM) | 0.8 (≈ 1.95 µM) | 1.6 (≈ 3.91 µM) | 1.6 (≈ 3.91 µM) | 6.3 (≈ 15.4 µM) | 0.8 (≈ 1.95 µM) | CCn1cc(C(=O)O)c(=O)c2c(F)c(F)c(N3CCC4(CCN(C)C4)C3)c(F)c21 (centres unmarked) [Ex. 1B, 1-Ethyl-5,6,8-trifluoro-1,4-dihydro-7-(7-methyl-2,7-diazaspiro[4.4]nonan-2-yl)-4-oxo-3-quinolinecarboxylic acid]
2 | 0.025 (≈ 0.0611 µM) | 1.6 (≈ 3.91 µM) | 0.2 (≈ 0.489 µM) | 0.4 (≈ 0.977 µM) | 0.4 (≈ 0.977 µM) | 0.2 (≈ 0.489 µM) | 0.1 (≈ 0.244 µM) | 0.2 (≈ 0.489 µM) | 3.1 (≈ 7.57 µM) | 0.2 (≈ 0.489 µM) | CCNCC1CCN(c2c(F)c(F)c3c(=O)c(C(=O)O)cn(C4CC4)c3c2F)C1 (centres unmarked) [Ex. 2A, 1-Cyclopropyl-7-[3-[(ethylamino)methyl]-1-pyrrolidinyl]-5,6,8-trifluoro-1,4-dihydro-4-oxo-3-quinolinecarboxylic acid]
3 | 0.8 (≈ 2.17 µM) | 3.1 (≈ 8.39 µM) | 0.8 (≈ 2.17 µM) | 0.8 (≈ 2.17 µM) | 0.8 (≈ 2.17 µM) | ≤ 0.1 | ≤ 0.1 | 0.8 (≈ 2.17 µM) | 3.1 (≈ 8.39 µM) | 1.6 (≈ 4.33 µM) | CCn1cc(C(=O)O)c(=O)c2c(F)c(F)c(N3CCC(CN)C3)c(F)c21 (centres unmarked) [Ex. 1A, 7-[3-(Aminomethyl)-1-pyrrolidinyl]-1-ethyl-5,6,8-trifluoro-1,4-dihydro-4-oxo-3-quinolinecarboxylic acid]
4 | 0.05 (≈ 0.13 µM) | 6.3 (≈ 16.4 µM) | 0.4 (≈ 1.04 µM) | 0.8 (≈ 2.09 µM) | 1.6 (≈ 4.17 µM) | 0.4 (≈ 1.04 µM) | 0.2 (≈ 0.522 µM) | 0.8 (≈ 2.09 µM) | 3.1 (≈ 8.09 µM) | 0.8 (≈ 2.09 µM) | CCn1cc(C(=O)O)c(=O)c2c(F)c(F)c(N3CCC(CNC)C3)c(F)c21 (centres unmarked) [Ex. 1C, 1-Ethyl-5,6,8-trifluoro-1,4-dihydro-7-[3-[(methylamino)methyl]-1-pyrrolidinyl]-4-oxo-3-quinolinecarboxylic acid]
5 | 0.013 (≈ 0.0327 µM) | 0.8 (≈ 2.01 µM) | 0.4 (≈ 1.01 µM) | 0.8 (≈ 2.01 µM) | 0.4 (≈ 1.01 µM) | 0.2 (≈ 0.503 µM) | 0.2 (≈ 0.503 µM) | 0.2 (≈ 0.503 µM) | 6.3 (≈ 15.9 µM) | 0.4 (≈ 1.01 µM) | CCNCC1CCN(c2c(F)c(F)c3c(=O)c(C(=O)O)cn(CC)c3c2F)C1 (centres unmarked) [Ex. 1D, 1-Ethyl-7-[3-[(ethylamino)methyl]-1-pyrrolidinyl]-5,6,8-trifluoro-1,4-dihydro-4-oxo-3-quinolinecarboxylic acid]
